Laboratory results: patent US12138383B2, “Heating unit for use in a drug delivery device” (ALEXZA PHARMACEUTICALS, INC., priority 2007, dated 2024)

Tests used:
[1] = Aerosol particle size distribution by Anderson Cascade Impactor; type: physicochemical; settings: heat-oxidized perforated 316 stainless steel; for Average MMAD (μm): 28.3 liters/minute; for GSD / MMAD (μm): approx. 0.07 mg/cm^2, 28.3 liters/minute
Description: An Anderson Cascade Impactor (ACI), an inertial impaction size separating device, was used to determine the particle size distribution of the aerosol. The ACI consists of several stages, with each successive stage having a smaller size cutoff. By extracting and determining the mass of drug deposited at each stage, it is possible to estimate the particle size distribution of the aerosol. The ACI was placed immediately downstream from the screening apparatus. Again, the airway and substrate were extracted to determine the mass balance for each actuation of the device.

[2] = Aerosol purity of condensation aerosol vaporized from drug-coated substrate in substrate screening apparatus (HPLC of filter extract); type: physicochemical; settings: heat-oxidized perforated 316 stainless steel
Description: The substrate screening apparatus 400 is made of a machined plastic (polyoxymethylene, DELRIN® Acetal Resin, DuPont, Wilmington, DE) block 402 with a 2 cm^2 cross-sectional area for mounting a substrate 412. Block 402 includes a first airway 404 extending from first inlet 414 to outlet 422. Block 402 also include a second airway 406 extending from second inlet 416 to substrate 412, where it typically joins the first airway. The substrate 412 is mounted in the substrate screening apparatus 400 across two electrodes 420. A first air flow 414 is established in first airway 404 and a second air flow 416 is established in second airway 406 such that the second air flow 416 passes from the second airway 406 to first airway 404 through holes in the substrate 412. While providing air flows 414 and 416, the substrate 412 is heated, typically by discharging a capacitor (not shown) across the substrate 412. In a one embodiment, the flow of air passing through holes in the substrate 412 is in a direction orthogonal to that of air flow 414. Substrate 412 is coated with a drug composition film. The substrate 412 is heated to vaporized all or a portion of the drug composition. The vaporized drug subsequently cools and condenses to form a condensation aerosol that is carried to the outlet by air flow 414, joined by air flow 416). Accordingly, the condensation aerosol is emitted from the outlet 422.
The test substrates were then coated with a drug composition. The drug was typically dissolved in a volatile organic solvent (e.g., dichloromethane/methanol mixture or acetone or other suitable organic solvent) and then spray-coated onto the test substrates using an automated spray coater. Coating parameters, such as the drug concentration in the coating solution, solution flow rate, were selected to obtain a uniform drug coating of the desired coating density (i.e., mass/area).
Total air flow through the substrate screening apparatus was set by providing air flows 414 and 416 at a desired ratio. (As used herein, “across” air flow refers to air flow 414 and “bottom” air flow refers to air flow 416.) Brass electrodes 420 attached to the substrate screening apparatus 400 were used to clamp the substrate 412 in place and provide electrical connections. For most experiments, a 1-Farad capacitor was used as the energy source. The capacitor was typically charged to 11-14 volts, depending on the desired substrate temperature. A high current relay was used to connect the circuit and discharge the capacitor across the substrate to induce heating and vaporization of the drug.
FIG. 5 is a schematic of another embodiment of a substrate screening apparatus 500 that was used to direct air flow through the holes of coated polyimide film (KAPTON® polyimide film) substrates (see FIGS. 2A and 2B). Substrate screening apparatus 500 is similar in configuration and operation to substrate screening apparatus 400, with the exception that substrate screening apparatus 500 includes two electrodes 502 on the same side of the screening apparatus 500, whereas substrate screening apparatus 400 includes two electrodes 420 on opposite sides of the screening apparatus 400. In the examples using polyimide film substrates described below, a polyimide film substrate coated with a drug composition was placed in substrate screening apparatus 500 across electrodes 502. A computer-controlled power supply was connected to the electrodes. The power supply was typically capable of heating the polyimide film substrate to the target temperature within 300 milliseconds, and the substrate was kept at the target temperature for a duration of 1 second.
To determine aerosol purity and emitted dose, a 2 μm Teflon filter (ZEFLUOR PTFE filters, available from Zefon International, Inc., Ocala, FL) was placed immediately downstream from the screening apparatus during aerosol generation. […]

Compound: CCCCNc1cc(C(=O)O)cc(S(N)(=O)=O)c1Oc1ccccc1 [Bumetanide, bumetanide]
- Average MMAD (μm) ([1]; coating density 0.08 mg/cm^2, across:bottom 90:10): 2.2 μm
- Average MMAD (μm) ([1]; coating density 0.26 mg/cm^2, across:bottom 90:10): 1.6 μm
- Average MMAD (μm) ([1]; coating density 0.58 mg/cm^2, across:bottom 0:100): 0.9 μm
- Average MMAD (μm) ([1]; coating density 0.58 mg/cm^2, across:bottom 90:10): 1.9 μm
- Average MMAD (μm) ([1]; coating density 0.58 mg/cm^2, across:bottom 100:0): 1.7 μm
- GSD ([1]; across:bottom 0:100): 2.4 ± 0.1
- MMAD (μm) ([1]; across:bottom 0:100): 0.4 ± 0.0 μm
- GSD ([1]; across:bottom 90:10): 2.0 ± 0.1
- MMAD (μm) ([1]; across:bottom 90:10): 2.7 ± 0.1 μm
- GSD ([1]; across:bottom 100:0): 4.0 ± 0.5
- MMAD (μm) ([1]; across:bottom 100:0): 3.6 ± 0.5 μm
- aerosol purity ([2]; 0.07 mg/cm^2, 20 liters/minute, as little as 5% of air flow through the substrate): 98%
- Emitted Aerosol Purity (%) ([2]; 20 liters/minute, across:bottom 0:100): 98.5%
- aerosol purity ([2]; 20 liters/minute, across:bottom 0:100, coating density 0.08 mg/cm^2): 99.3 ± 0.1
- Mean Aerosol Purity (%) ([2]; 20 liters/minute, across:bottom 0:100, coating density 0.10 mg/cm^2): 98.8%
- Mean Aerosol Purity (%) ([2]; 20 liters/minute, across:bottom 0:100, coating density 0.14 mg/cm^2): 98.8%
- aerosol purity ([2]; 20 liters/minute, across:bottom 0:100, coating density 0.26 mg/cm^2): 98.9 ± 0.1
- aerosol purity ([2]; 20 liters/minute, across:bottom 0:100, coating density 0.58 mg/cm^2): 98.7 ± 0.3
- Emitted Aerosol Purity (%) ([2]; 20 liters/minute, across:bottom 50:50): 98.4%
- Mean Aerosol Purity (%) ([2]; 20 liters/minute, across:bottom 50:50, coating density 0.10 mg/cm^2): 98.8%
- Mean Aerosol Purity (%) ([2]; 20 liters/minute, across:bottom 50:50, coating density 0.14 mg/cm^2): 98.9%
- aerosol purity ([2]; 20 liters/minute, across:bottom 90:10, coating density 0.08 mg/cm^2): 99.2 ± 0.1
- aerosol purity ([2]; 20 liters/minute, across:bottom 90:10, coating density 0.26 mg/cm^2): 98.6 ± 0.1
- aerosol purity ([2]; 20 liters/minute, across:bottom 90:10, coating density 0.58 mg/cm^2): 98.4 ± 0.3
- Emitted Aerosol Purity (%) ([2]; 20 liters/minute, across:bottom 100:0): 96.4%
- aerosol purity ([2]; 20 liters/minute, across:bottom 100:0, coating density 0.08 mg/cm^2): 95.8 ± 0.6
- Mean Aerosol Purity (%) ([2]; 20 liters/minute, across:bottom 100:0, coating density 0.10 mg/cm^2): 95.7%
- Mean Aerosol Purity (%) ([2]; 20 liters/minute, across:bottom 100:0, coating density 0.14 mg/cm^2): 94.8%
- aerosol purity ([2]; 20 liters/minute, across:bottom 100:0, coating density 0.26 mg/cm^2): 94.8 ± 0.2
- aerosol purity ([2]; 20 liters/minute, across:bottom 100:0, coating density 0.58 mg/cm^2): 90.7 ± 0.4
